The source of these data is patent US20230097866A1, “BACTERIAL TOPOISOMERASE INHIBITORS DERIVED FROM ISOMANNIDE” (Ohio State Innovation Foundation, priority 2020, published 2023).

In brackets after ≈: the same amount, converted by molar mass. Where two headings read alike, the source gives them in different places.

For one data set, the system named is Caco-2 cells. The format is in vitro ADME. As to conditions: human, Caco-2, 10 μM, pH 7.4. The method, then:
Caco-2 cells were plated on Transwell inserts and permeability assays were performed at day 21-25 post-plating. A single concentration of test compound (10 μM final) was prepared in HSS-HEPES buffer (pH 7.4) with a final DMSO concentration of 0.1%. To determine apical to basolateral (A to B) transport, test compounds were applied to the apical compartment in the presence and absence of the P-gp inhibitor verapamil (100 μM final). Atenolol and caffeine were assayed as control compounds. Samples were collected at various time points and analyzed using LC-MS/MS methods to determine the apparent permeability coefficient (Papp), efflux ratio, and recovery of the test compound.
Transport in the opposite direction (B to A) was also determined.

In data set [1] the target is T1, Cav1.2 (L-type) Human Calcium Ion Channel (Homo sapiens, UniProt Q13936).
T1 construct: expressed in transfected cells
T1 sequence (Q13936 whole entry): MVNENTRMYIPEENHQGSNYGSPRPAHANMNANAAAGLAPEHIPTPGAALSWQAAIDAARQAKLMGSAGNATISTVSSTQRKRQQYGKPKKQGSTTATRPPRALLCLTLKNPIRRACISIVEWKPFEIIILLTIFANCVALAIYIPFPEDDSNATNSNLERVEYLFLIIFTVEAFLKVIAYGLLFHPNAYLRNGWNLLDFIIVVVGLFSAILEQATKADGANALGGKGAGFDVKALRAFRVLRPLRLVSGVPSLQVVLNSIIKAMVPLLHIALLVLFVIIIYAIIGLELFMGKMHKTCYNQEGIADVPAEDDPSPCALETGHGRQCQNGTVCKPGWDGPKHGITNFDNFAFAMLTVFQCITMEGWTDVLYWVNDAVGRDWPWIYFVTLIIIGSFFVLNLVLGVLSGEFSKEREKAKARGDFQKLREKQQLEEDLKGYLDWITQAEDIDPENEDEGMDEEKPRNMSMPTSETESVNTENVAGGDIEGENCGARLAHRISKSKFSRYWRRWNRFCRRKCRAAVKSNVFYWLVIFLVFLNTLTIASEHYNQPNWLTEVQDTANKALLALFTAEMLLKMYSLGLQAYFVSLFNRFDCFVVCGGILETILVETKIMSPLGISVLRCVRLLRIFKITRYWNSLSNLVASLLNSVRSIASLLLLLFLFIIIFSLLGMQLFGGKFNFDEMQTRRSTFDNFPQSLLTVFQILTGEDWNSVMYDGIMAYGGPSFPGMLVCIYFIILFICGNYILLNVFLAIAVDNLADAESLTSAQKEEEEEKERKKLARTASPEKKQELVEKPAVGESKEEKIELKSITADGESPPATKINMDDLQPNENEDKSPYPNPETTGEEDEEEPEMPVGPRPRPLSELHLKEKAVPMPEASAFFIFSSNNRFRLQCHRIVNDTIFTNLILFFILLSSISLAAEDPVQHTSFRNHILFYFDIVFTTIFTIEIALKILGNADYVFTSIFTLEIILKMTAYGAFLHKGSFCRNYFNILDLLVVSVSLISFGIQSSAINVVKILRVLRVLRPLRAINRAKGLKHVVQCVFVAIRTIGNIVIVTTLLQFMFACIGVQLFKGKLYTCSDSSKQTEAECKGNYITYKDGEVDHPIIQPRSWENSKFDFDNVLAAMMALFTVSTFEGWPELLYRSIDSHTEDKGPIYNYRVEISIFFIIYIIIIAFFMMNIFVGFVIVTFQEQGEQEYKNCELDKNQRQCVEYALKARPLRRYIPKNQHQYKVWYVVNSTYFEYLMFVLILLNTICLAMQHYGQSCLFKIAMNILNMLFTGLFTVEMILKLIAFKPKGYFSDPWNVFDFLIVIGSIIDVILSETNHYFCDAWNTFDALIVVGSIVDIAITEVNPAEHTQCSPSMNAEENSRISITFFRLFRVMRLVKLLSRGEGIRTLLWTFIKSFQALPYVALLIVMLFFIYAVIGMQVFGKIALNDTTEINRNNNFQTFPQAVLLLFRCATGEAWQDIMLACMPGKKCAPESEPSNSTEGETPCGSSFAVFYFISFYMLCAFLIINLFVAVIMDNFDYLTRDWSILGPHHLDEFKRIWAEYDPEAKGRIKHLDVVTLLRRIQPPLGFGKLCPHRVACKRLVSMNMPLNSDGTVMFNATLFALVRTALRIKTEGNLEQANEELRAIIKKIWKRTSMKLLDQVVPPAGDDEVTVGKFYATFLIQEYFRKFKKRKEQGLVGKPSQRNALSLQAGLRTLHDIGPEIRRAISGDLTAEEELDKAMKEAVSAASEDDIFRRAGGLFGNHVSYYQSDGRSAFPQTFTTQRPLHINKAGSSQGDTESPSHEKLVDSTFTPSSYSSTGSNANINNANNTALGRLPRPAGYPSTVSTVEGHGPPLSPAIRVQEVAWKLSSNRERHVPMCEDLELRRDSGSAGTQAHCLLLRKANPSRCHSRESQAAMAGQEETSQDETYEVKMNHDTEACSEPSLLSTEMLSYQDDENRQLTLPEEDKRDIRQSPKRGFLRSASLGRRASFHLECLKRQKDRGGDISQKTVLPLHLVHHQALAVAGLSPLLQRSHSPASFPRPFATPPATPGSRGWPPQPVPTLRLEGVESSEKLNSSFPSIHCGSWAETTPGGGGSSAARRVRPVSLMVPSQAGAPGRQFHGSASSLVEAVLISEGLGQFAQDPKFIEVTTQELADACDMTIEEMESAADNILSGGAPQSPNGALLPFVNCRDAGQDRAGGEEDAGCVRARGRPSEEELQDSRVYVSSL
T1 sequence (Q08289 whole entry partner): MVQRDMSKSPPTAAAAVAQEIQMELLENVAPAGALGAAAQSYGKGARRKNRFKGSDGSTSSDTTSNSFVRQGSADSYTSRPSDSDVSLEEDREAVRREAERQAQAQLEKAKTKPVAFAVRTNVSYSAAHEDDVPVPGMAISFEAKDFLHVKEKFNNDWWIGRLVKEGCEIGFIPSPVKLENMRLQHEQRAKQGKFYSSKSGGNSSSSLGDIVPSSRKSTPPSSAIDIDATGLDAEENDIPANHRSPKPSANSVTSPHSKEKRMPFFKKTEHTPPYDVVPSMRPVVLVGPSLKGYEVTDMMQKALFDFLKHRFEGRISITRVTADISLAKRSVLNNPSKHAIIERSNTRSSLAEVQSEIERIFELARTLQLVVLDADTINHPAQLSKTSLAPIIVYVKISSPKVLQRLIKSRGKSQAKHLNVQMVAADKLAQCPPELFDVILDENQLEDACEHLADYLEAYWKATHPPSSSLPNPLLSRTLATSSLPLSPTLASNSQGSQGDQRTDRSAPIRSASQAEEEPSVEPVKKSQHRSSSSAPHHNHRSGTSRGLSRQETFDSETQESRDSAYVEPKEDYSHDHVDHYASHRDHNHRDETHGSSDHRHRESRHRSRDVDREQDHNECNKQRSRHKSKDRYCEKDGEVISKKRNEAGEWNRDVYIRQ
T1 sequence (P54289 25-946 partner limits assumed): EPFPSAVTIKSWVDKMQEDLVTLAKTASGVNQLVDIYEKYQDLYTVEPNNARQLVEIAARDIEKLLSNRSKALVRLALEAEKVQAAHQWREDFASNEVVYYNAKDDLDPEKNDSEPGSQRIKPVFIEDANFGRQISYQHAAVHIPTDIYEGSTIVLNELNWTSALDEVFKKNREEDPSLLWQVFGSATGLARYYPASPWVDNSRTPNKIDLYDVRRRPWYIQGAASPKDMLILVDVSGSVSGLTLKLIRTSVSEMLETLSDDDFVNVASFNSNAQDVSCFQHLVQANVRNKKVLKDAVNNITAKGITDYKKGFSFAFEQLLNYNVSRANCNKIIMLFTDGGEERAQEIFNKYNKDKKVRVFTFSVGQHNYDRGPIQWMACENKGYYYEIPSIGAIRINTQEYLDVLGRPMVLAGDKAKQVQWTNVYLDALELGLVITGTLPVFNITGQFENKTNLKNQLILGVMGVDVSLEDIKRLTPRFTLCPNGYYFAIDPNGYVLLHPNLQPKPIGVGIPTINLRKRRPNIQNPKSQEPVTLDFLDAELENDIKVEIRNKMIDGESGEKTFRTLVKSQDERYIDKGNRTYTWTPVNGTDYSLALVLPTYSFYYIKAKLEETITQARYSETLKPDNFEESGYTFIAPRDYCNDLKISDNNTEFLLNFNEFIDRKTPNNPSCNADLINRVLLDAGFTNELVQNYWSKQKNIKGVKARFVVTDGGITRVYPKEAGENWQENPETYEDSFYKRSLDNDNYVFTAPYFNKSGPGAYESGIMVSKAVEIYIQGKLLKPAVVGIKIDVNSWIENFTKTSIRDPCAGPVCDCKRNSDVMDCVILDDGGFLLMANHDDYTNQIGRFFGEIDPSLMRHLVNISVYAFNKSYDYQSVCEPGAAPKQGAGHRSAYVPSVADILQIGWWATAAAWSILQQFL
T1 sequence (P54289 947-1103 partner limits assumed): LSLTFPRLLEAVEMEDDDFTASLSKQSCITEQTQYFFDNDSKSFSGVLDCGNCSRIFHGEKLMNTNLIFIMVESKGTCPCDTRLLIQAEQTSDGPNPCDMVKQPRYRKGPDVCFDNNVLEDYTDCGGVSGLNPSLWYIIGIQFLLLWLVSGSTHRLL
The data set is described as follows: Cav1.2 (L-type) QPatch CiPA assay. It is filed as cell-based. As to conditions: mean, duplicate. An excerpt:
(§1) Early drug discovery programs commonly assess hERG inhibition as the only indicator of potential cardiovascular safety concerns. Researchers have recently recommended a more rigorous evaluation of multiple cardiac ion channels to provide a more comprehensive cardiovascular risk assessment (Fermini, B., et al., A New Perspective in the Field of Cardiac Safety Testing through the Comprehensive In Vitro Proarrhythmia Assay Paradigm. J. Biomolec. Screening 2016, 21, 1-11). Given the promising initial results for 6, further evaluation was undertaken (in duplicate) in a Comprehensive in vitro Proarrhythmia Assay (CiPA) eight assay panel run on the QPatch HT (Sophion, Denmark) automated patch clamp system at three concentrations (3, 30, and 100 μM). All data were filtered for seal quality, seal drop, and current amplitude. A stock solution of the test compound at 30 mM concentration was prepared in DMSO.
The parameters measured were the maximum inward current evoked on stepping to 10 mV from the test pulse. The peak current amplitude was calculated before and after compound addition and the amount of block was assessed by dividing the Test compound current amplitude by the Control current amplitude. Control is the mean hCav1.2 current amplitude collected 15 seconds at the end of the control; Test Compound is the mean hCav1.2 current amplitude collected in the presence of test compound at each concentration. The positive control was nifedipine.
In general terms: Patch clamp records ionic current or voltage across a cell membrane.

In data set [2] the test system is Streptococcus pneumoniae LSI-4234. The data set is described as follows: MIC panel (Laboratory Specialists, Inc.), S. pneumoniae LSI-4234. It is filed as cell-based. As to conditions: LSI4234, Cmpd. 6, penicillin-susceptible strain.
In the next data set the target is hERG (Homo sapiens, UniProt Q12809). The data set is described as follows: hERG IC50, IonWorks Barracuda (Charles River). As to conditions: 6 versus 24. The source says: The design of these isomannide-detived NBTIs focused on enhanced polarity and modulation of basicity through the two electronegative oxygen atoms in the linker.
Sequence of hERG (Q12809 whole entry): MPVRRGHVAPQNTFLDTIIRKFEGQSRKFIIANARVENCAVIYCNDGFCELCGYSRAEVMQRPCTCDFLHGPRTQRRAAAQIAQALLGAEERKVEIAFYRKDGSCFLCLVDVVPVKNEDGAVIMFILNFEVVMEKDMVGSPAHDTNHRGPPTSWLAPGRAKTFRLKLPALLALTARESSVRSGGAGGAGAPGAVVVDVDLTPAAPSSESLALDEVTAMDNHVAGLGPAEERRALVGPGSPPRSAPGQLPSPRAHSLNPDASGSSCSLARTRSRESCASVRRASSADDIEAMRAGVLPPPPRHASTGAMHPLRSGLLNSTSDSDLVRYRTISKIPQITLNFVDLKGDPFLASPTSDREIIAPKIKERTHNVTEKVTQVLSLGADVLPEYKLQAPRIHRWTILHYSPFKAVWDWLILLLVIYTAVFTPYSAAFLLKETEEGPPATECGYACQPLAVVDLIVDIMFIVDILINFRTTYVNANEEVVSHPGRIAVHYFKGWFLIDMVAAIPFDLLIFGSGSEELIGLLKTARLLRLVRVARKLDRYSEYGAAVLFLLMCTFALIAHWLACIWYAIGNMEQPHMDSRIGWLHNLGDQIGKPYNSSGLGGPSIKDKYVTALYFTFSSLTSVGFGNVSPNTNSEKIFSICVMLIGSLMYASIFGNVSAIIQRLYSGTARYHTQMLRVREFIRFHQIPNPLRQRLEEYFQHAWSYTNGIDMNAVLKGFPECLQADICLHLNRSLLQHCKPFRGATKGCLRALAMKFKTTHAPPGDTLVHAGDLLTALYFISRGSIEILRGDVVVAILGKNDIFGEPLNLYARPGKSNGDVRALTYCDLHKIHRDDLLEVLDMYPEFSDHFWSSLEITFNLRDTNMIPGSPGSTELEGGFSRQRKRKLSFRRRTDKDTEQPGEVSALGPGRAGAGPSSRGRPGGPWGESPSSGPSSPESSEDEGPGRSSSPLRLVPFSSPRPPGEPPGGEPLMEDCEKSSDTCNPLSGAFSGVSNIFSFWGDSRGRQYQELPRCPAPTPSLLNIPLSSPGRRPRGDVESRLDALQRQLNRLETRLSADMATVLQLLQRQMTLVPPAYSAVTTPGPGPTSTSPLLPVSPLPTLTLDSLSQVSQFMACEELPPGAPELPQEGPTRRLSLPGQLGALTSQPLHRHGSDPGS
(In general: Block of hERG is tested as a sign of cardiac risk.)

The test system of the next data set is Nav site 2. Nature of the data set: Off-target safety panel, Nav site 2. The format is binding. The settings on record: duplicate. The protocol:
Potential off-target pharmacology for compound 6 was also evaluated by screening in duplicate against a panel (Bowes, J., et al., Reducing Safety-Related Drug Attrition: The Use of in vitro Pharmacological Profiling. Nat. Rev. Drug Disc. 2012, 11, 909-922) of 44 receptors, enzymes, etc. Of the 44 potential targets, only five were inhibited by >50% at a concentration of 100 μM (Table 7).

Data set [3] has as its system Enterobacter cloacae LSI-2943. Nature of the data set: MIC panel (Laboratory Specialists, Inc.), E. cloacae. It is filed as cell-based. The settings on record: LSI2943, Cmpd. 6, CLSI broth microdilution.
The target of another data set is T2, hKv4.3/KChIP2 (Homo sapiens, UniProt Q9UK17).
T2 construct: expressed in transfected cells
T2 sequence (Q9UK17 1-655): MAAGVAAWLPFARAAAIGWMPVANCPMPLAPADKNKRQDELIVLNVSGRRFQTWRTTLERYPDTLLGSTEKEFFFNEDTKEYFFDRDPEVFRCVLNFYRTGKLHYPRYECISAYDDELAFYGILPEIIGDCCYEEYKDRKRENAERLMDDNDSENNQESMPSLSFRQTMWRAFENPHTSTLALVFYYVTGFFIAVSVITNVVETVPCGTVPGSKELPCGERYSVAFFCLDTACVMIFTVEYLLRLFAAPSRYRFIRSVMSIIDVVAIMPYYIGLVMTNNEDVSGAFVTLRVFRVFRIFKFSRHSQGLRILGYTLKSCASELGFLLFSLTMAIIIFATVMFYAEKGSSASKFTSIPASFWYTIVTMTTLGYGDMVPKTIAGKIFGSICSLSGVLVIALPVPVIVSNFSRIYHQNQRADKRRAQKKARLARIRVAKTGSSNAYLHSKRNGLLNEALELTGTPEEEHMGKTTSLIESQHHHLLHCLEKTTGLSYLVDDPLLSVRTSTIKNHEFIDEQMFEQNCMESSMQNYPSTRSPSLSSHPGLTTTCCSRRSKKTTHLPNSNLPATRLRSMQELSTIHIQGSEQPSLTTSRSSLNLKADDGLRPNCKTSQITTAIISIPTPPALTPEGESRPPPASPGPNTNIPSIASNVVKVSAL
T2 sequence (Q9NS61 1-270 partner): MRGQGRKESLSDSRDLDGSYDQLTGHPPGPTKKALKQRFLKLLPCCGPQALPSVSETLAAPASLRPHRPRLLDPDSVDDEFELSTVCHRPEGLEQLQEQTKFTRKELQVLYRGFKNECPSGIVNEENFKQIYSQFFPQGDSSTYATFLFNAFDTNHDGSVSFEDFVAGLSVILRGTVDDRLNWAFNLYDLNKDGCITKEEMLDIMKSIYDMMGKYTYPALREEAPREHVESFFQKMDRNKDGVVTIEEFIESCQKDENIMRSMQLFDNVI
Nature of the data set: Kv4.3/KChIP2 QPatch CiPA assay. It is filed as cell-based. The settings on record: mean, duplicate.
Text: as §1
The parameters measured were the maximum outward current evoked on stepping to 40 mV from the test pulse. The peak current amplitude was calculated before and after compound addition and the amount of block was assessed by dividing the Test compound current amplitude by the Control current amplitude. Control is the mean hKv4.3/KChIP2 current amplitude collected 15 seconds at the end of the control; Test Compound is the mean hKv4.3/KChIP2 current amplitude peak and end collected in the presence of test compound at each concentration. The positive control was flecainide.

Where [4] appears, read: read-out: % Inhibition Kv4.3 (end current).
Setting [5] is: read-out: % Inhibition Kv4.3 (peak current).

For the compound `COc1ccc2ncc(F)c(CC[C@@]3(O)CO[C@@H]4[C@@H](NCc5cc6c(cn5)OCCO6)CO[C@@H]43)c2n1` [Compound 6, (3R, 3aS,6S,6aR)-6-(((2,3-dihydro-[1,4]dioxino[2,36-c]pyridin-7-yl)methyl)amnino)-3-(2-(3-fluoro-6-methoxy-1,5-naphthyridin-4-yl)ethyl)hexahydrofuro[3,2-b]furan-3-ol], the “Caco-2 permeability A→B” value in the data set on Caco-2 cells was 1.08e-05 cm/s. Moreover, the “Caco-2 permeability B→A” value in the data set with Caco-2 cells was 8.53e-05 cm/s. The “% Inhibition Cav1.2 (peak current)” value in data set [1] (3 μM) amounted to 4.7%; in data set [1] (30 μM), 23.3%; in data set [1] (100 μM) it was 24.9%. Besides, the MIC (usually the smallest concentration in the dilution series that meets the test's criterion for growth inhibition) is at most 0.12 µg/mL in data set [2] and 16 µg/mL (≈ 32.1 µM) in data set [3]. The “hERG IC50 higher than benzodioxine 24” value at hERG was “ca. 3 fold”. In the data set on Nav site 2, the % Inhibition – broadly, the percentage by which the read-out fell short of the control – at 100 μM conc., Nav site 2 is given as 78%. For the same compound, the inhibition (commonly the change of the read-out against control, counted positive when it falls) at 3 µM on hKv4.3/KChIP2 (setting [4]) was -4.4%; at hKv4.3/KChIP2 (setting [5]), 11%. Besides, the results for the inhibition at 30 µM at hKv4.3/KChIP2 (setting [4]) and at hKv4.3/KChIP2 (setting [5]) were -19.6% and 25.1%, respectively. Further, the inhibition at 100 µM on hKv4.3/KChIP2 (setting [4]) was found to be 7.1%; at hKv4.3/KChIP2 (setting [5]), 43.6%.
